Like-named read-outs stand apart in the source and are kept apart here.
What was measured:
[1] = Pharmacokinetic study in rat models (single dose, infusion); type: in vivo; conditions: 15 mg/kg, infusion time 1 h
Excerpt: 5. […] Thus, vancomycin was available for a prolonged period and less frequent administration is enabled.

rats [2] = experiment: Urinary biomarkers of renal damage (KIM-1, clusterin, osteopontin) in the rat toxicity study; type: in vivo; conditions: 150 mg/kg daily for 5 days, FIG. 8
Method: (§1) To evaluate toxicity of the liposomal formulations, rats were dosed daily with 150 mg/kg test formulation for 5 days, which is about 10-fold of a dose for human administration (typically 1 g).
(§2) The endpoints for renal damage were urinary biomarkers (KIM-1, Clusterin, Osteopontin), a plasma biomarker (creatinine), and histopathology findings for the kidney. Here, blood sampling was performed at a total volume of 2 mL and clinical chemistry samples were drawn pre-dosing, day 3, and day 5 (0.25 mL each), and pharmacokinetic samples were drawn on Day 1 (4 samples of 0.125 mL), Day 3 (4 samples of 0.125 mL), and Day 5 (2 samples of 0.125 mL). For each animal, at euthanasia, kidneys were formalin fixed and flash frozen in liquid nitrogen. Samples were analyzed for histopathological grading using standard procedures well known in the art.
Further exemplary results are shown for selected urinary markers in FIG. 8. Here, the markers included KIM-1, clusterin, and osteopontin (OPN). […] On the other hand, the markers remained substantially unchanged or only moderately elevated over control in both treatment groups where liposomal compositions according to the inventive subject matter were used.

rats [3] = experiment: Kidney histopathology in the rat toxicity study; type: in vivo; conditions: 150 mg/kg daily for 5 days
Method: as §1, §2

[4] = cited from earlier work

`CN[C@H](CC(C)C)C(=O)N[C@H]1C(=O)N[C@@H](CC(N)=O)C(=O)N[C@H]2C(=O)N[C@H]3C(=O)N[C@H](C(=O)N[C@H](C(=O)O)c4cc(O)cc(O)c4-c4cc3ccc4O)[C@H](O)c3ccc(c(Cl)c3)Oc3cc2cc(c3O[C@@H]2O[C@H](CO)[C@@H](O)[C@H](O)[C@H]2O[C@H]2C[C@](C)(N)[C@H](O)[C@H](C)O2)Oc2ccc(cc2Cl)[C@H]1O` [Vancomycin] gave a Lambda z [1] of 0.879, an AUC(0-inf) ([1]; serum, iv) of 34800 ng·h/mL and a Cmax ([1]; serum, iv) of 34600 ng/mL. For the same compound, the Tmax ([1]; serum, iv) was 0 h, the half-life ([1]; serum, iv) was 48 min and the “urinary markers KIM-1, clusterin, osteopontin (OPN)” value (rats [2]) was “significant elevations of all markers”. The kidney histopathological findings (rats [3]) was “significant proximal tubular cell injury and repair”, the half-life ([4]; humans with normal renal function) was “three to six” and the mean plasma concentration ([4]; humans, multiple intravenous infusions of 1 gram over 60 minutes, 11 hours after end of infusion) was 8000 ng/mL. The “recovered unchanged in urine” value ([4]; within 24 h after a single dose) was 80%-90.

Reference: US20220296515A1, “Vancomycin Liposome Compositions and Methods” (Nevakar Injectables Inc., priority 2019, published 2022)
